Paper PMC2362735, “New semisynthetic vinca alkaloids: chemical, biochemical and cellular studies” (British Journal of Cancer, 1999)

Assays:
[1] = tested on: Mouse leukaemia P388 cells; design: method as in Orosz et al (1997a); settings: P388, single doses i.p.; data published also in ref Orosz et al (1997a); cited from earlier work
[2] = tested on: Mouse Ehrlich ascites tumour cells; experiment: In vivo anti-tumour effect on Ehrlich ascites carcinoma, single i.p. dose 4 days after transplantation
Text: (§1) The numerous antimitotic drugs already developed and therapeu- tically used for a large number of pathologies belong to different classes based on their chemical structure and other distinctive features. Antimitotic drugs usually target the tubulin/microtubule network of the cytoskeleton that is formed by assembly of cyto- plasmic tubulin dimers. The stability of the different microtubular structures varies considerably; some of their functions depend on their lability. The lability is augmented by the extreme sensitivity to various drugs. Several synthetic and natural compounds interact specifically with tubulin and/or microtubule, fundamentally destroying its dynamic character and leading to cell death. […] Because of their extensive clinical use, it is important to synthesize additional agents having at least the same biological activity. […] Nevertheless, it is unclear yet how the anti-calmodulin activity of these drugs is related to their desired and undesired pharmacological effects. […] The synthesis of the KAR derivatives are presented. […] Taxol, GTP and trifluoperazine were purchased from Sigma. All organic reagents for synthesis of the new compounds were obtained from Aldrich and were of the highest grade. All other chemicals were reagent grade commercial preparations. […] Tubulin was stored in 1 M sucrose, 10 mM sodium phosphate buffer, 0.5 mM magnesium chloride and 0.1 mM GTP, pH 7.0, at -80C and dialysed against the appropriate buffer before use. […] PFK, aldolase and glycerol-3-phosphate dehydrogenase- triosephosphate isomerase purified from rabbit skeletal muscle were purchased in ammonium sulphate suspensions from Sigma or Boehringer. The enzyme suspensions were centrifuged at 10 000g for 5 min. The pellets were suspended in the appropriate buffer, then the enzymes were gel filtered or dialysed in the same buffer to remove ammonium sulphate. […] (Figure 1B; R1 , CH3; R2 , CH2 CH2 Cl). […] After 2 h incubation at room temperature, 200 ml dried toluene was added to the reaction mixture. […] The mixture was stirred for 30 min. After separation of the organic phase, it was washed with water (3 x 30 ml) and dried with potassium sulphate and evaporated on a water bath of 35-40C at 20-27 hPa. The resulting material was chromatographed on silica gel (500 g, bead size of 0.040- 0.063 mm) column (30 mm x 500 mm) using ethyl acetate/ethanol (9:1) mixture as eluent. […] The mixture was kept for 4 h at room temperature and then evaporated on a water bath at 40C under a vacuum of 80 hPa to a final volume of 5-6 ml. […] (Figure 1B, R1 , CHO; R2 , CH2 CH2 Cl). […] Synthesis of KAR-4 [3-allyl-2,4-dioxo-3,5-spiro-oxazolidino- 4-deacetoxy-vinblastine] (Figure 1B; R1 , CH3; R2 , CH2 CH=CH2 ). […] NMR measurements were carried out on a Varian Unity plus-500 instrument (500 MHz for 1H and 125 MHz for 13C) in DMSO. Chemical shifts were determined relative to dTMS = 0.00 p.p.m. 1H and 13C signal assignments were verified by a concerted use of two-dimensional 1H-1H and 1H-13C shift correlation methods (DQFCOSY, HSQC, HMBC) and NOESY experiments. The gradient-enhanced DQFCOSY, HSQC, HMBC and NOESY experiments were recorded by using the standard spectrometer software package. A mixing time of tmix = 0.5 s was used for the NOESY experiments.

tubulin = experiment: Taxol-induced tubulin polymerization, turbidity at 350 nm; assay type: biochemical, calf; settings: taxol-induced assembly, MES buffer pH 6.8, 37C; average of three independent measurements; read-out: Anti-tubulin effect, turbidity at 350 nm, IC50
Text: as §1

[3] = Table 2A, 40 mg kg-1 single dose i.p.
[4] = Table 2B, 20 mg kg-1 single dose i.p.
[5] = Table 2B, 40 mg kg-1 single dose i.p.
[6] = Table 2B, 60 mg kg-1 single dose i.p.
[7] = Table 2B, 80 mg kg-1 single dose i.p.

CC[C@]1(O)C[C@@H]2CN(CCc3c([nH]c4ccccc34)[C@@](C(=O)OC)(c3cc4c(cc3OC)N(C)[C@@H]3[C@]45CCN4CC=C[C@@](CC)(C[C@@]36OC(=O)N(CCCl)C6=O)[C@H]45)C2)C1 [KAR-2, 3′-(β-chloroethyl)-2′,4′-dioxo-3,5′-spiro-oxazolidino-4-deacetoxy-vinblastine]
Dose (mg kg-1) giving the maximal effect [1]: 60 mg/kg
Maximal effect T/C (%) [1]: 207%
mortality of treated animals ([2]; 80 mg kg-1 single dose i.p., three mice per group): The animals were dying in the same day of the sacrifice
Cells ml-1 (per cent of control) [2, 3]: 56 per cent of control
Total cells (per cent of control) [2, 3]: 24 per cent of control
Volume of tumour per mouse ([2]; Table 2A, 40 mg kg-1 single dose i.p., sacrifice 8 days after implantation, control 5.33 ml): 2.33 mL
Cells ml-1 (per cent of control) [2, 4]: 63 per cent of control
Total cells (per cent of control) [2, 4]: 46 per cent of control
Volume of tumour per mouse ([2]; Table 2B, 20 mg kg-1 single dose i.p., control 2.67 ml): 1.97 mL
Cells ml-1 (per cent of control) [2, 5]: 60 per cent of control
Total cells (per cent of control) [2, 5]: 24 per cent of control
Volume of tumour per mouse ([2]; Table 2B, 40 mg kg-1 single dose i.p., control 2.67 ml): 1.17 mL
Cells ml-1 (per cent of control) [2, 6]: 46 per cent of control
Total cells (per cent of control) [2, 6]: 29 per cent of control
Volume of tumour per mouse ([2]; Table 2B, 60 mg kg-1 single dose i.p., control 2.67 ml): 1.70 mL
Cells ml-1 (per cent of control) [2, 7]: 211 per cent of control
Total cells (per cent of control) [2, 7]: 36 per cent of control
Volume of tumour per mouse ([2]; Table 2B, 80 mg kg-1 single dose i.p., control 2.67 ml): 0.45 mL
IC50 (tubulin): 200 nM
